Reference: US20080014253A1, “Lipid-Based Drug Delivery Systems Containing Unnatural Phospholipase A2 Degradable Lipid Derivatives and the Therapeutic Uses Thereof” (priority 2004, published 2008)

Target: T1, PLA2 (A. piscivorus piscivorus) (Agkistrodon piscivorus piscivorus, UniProt P51972)
T1 sequence (P51972 1-123): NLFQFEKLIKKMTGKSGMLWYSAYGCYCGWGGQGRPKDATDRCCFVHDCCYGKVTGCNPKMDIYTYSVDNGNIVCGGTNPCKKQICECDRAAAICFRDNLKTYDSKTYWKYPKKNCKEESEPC
Assay: PLA2 hydrolysis of unilamellar liposomes (lag time, degree of lipid hydrolysis by HPLC)
Assay type: biochemical
Conditions: for degree of PLA2 lipid hydrolysis: 1000 s after the unset of the burst, HPLC, broad temperature range
Method: FIG. 4. Characteristic reaction time profiles at 40° C. for PLA2 hydrolysis of unilamellar. (A) 0.15 mM 1-O-DPPC′ liposomes incubated with 150 nM PLA2 (A. piscivorus piscivorus). (B) 0.15 mM 1-O-DPPG′ liposomes incubated with human secretory PLA2 from 20 μL freshly prepared human tear fluid (B). The PLA2 hydrolysis reaction is monitored by intrinsic fluorescence (solid line) from the enzyme and 90° static light scattering (dashed lines) from the lipid suspension. After adding PLA2 to the equilibrated liposome suspension a characteristic lag time, τ, follows before a sudden increase in the catalytic activity takes place (A).
FIG. 5. PLA2 (A. piscivorus piscivorus) lag time, τ, as a function of temperature for the hydrolysis of 1-O-DPPC′ unilamellar liposomes incorporated with 0 mol % (▪), 2 mol % (▴), and 10 mol % (∘) 1-O-DPPG′ lipids, and 5 mol % (V) DSPE-PEG2000 polymer lipids. The concentration of the liposomes was 0.15 mM and the concentration of PLA2 was 150 nM.
FIG. 6. (A) PLA2 (A. piscivorus piscivorus) hydrolysis of 1-O-DPPC′ liposomes containing 0 mol % (▪), 2 mol % (▴), and 10 mol % (∘) 1-O-DPPG′ lipids, and 5 mol % (▾) DSPE-PEG2000 polymer lipids determined by HPLC [28]. The percent lipid hydrolysis is determined 1000 s after the unset of the burst. The concentration of the liposomes was 0.15 mM and the concentration of PLA2 was 150 nM. (B) Hydrolysis of 1-O-DPPG′ unilamellar liposomes determined by HPLC [28]. The PLA2 catalyzed lipid hydrolysis is determined as a function of time after addition of 20 μL freshly prepared human tear fluid to 0.15 mM 1-O-DPPG′ liposomes.
By replacing the ester linkage in the C-1 position with an ether bond, these unnatural phospholipids can furthermore be used as novel prodrug anticancer lipids to make liposomal microcarriers that can be degraded to active anticancer lysoetherlipids by PLA2 [27]. […] The PLA2 lag time measurements on 1-O-DPPC′ unilamellar liposomes incorporated with small amounts of 1-O-DPPG′ or DSPE-PEG2000 lipids were performed in the gel-to-fluid main phase transition range and the degree of lipid hydrolysis was analyzed using HPLC techniques.
Typical PLA2 (A. piscivorus piscivorus) hydrolysis time course profiles obtained at 40° C. are shown in FIG. 4 for 1-O-DPPC′ and 1-O-DPPG′ unilamellar liposomes. […] The rapid increase in PLA2 activity is reflected by a sharp rise in the intrinsic PLA2 tryptophan fluorescence intensity followed by a concomitant decrease in the 90° static light scattering caused by a change in the morphology of the lipid system when a large amount of the phospholipids are converted to non-bilayer forming lysolipids and free fatty acids. […] Both the fluorescence and light scattering data clearly indicate that the unnatural phospholipids are excellent substrates for PLA2 catalyzed hydrolysis. […]

| Molecule | PLA2 lag time, τ (0.15 mM unilamellar liposomes, 150 nM PLA2, 40° C.) | PLA2 lag time (1-O-DPPC′ liposomes incorporated with 5 mol % DPPE-PEG2000 lipopolymers) | degree of PLA2 lipid hydrolysis |
| --- | --- | --- | --- |
| CCCCCCCCCCCCCCCCOC[C@@H](COC(=O)CCCCCCCCCCCCCCC)OP(=O)([O-])OCC[N+](C)(C)C [1-O-DPPC′, (S)-1-O-hexadecyl-3-hexadecanoyl-glycero-2-phosphocholine] | observed | very short lag time | remarkably high degree of lipid hydrolysis |
| (S)-1-O-hexadecyl-3-hexadecanoyl-glycero-2-phosphoglycerol [1-O-DPPG′] | – | – | remarkably high degree of lipid hydrolysis |
